Assay results taken from PubChem BioAssay (NCI).
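All cell lines were grown in 96-well plates and treated with compound for 48 hours. GI50 is the concentration that inhibits growth by half. At the TGI there is no net growth.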

Legend:
Assay in all cases: NCI tumour cell line growth inhibition, 48 h
HS 578T breast = test system: HS 578T breast
SNB-19 CNS = test system: SNB-19 CNS
OVCAR-8 ovarian = test system: OVCAR-8 ovarian
MCF7 breast = test system: MCF7 breast
SR leukemia = test system: SR leukemia
HOP-62 NSCLC = test system: HOP-62 NSCLC
CAKI-1 renal = test system: CAKI-1 renal
SW-620 colon = test system: SW-620 colon
MALME-3M melanoma = test system: MALME-3M melanoma
SK-OV-3 ovarian = test system: SK-OV-3 ovarian
NCI-H226 lung = test system: NCI-H226 lung
MDA-MB-435 = test system: MDA-MB-435
RXF 393 renal = test system: RXF 393 renal
U251 CNS = test system: U251 CNS
SK-MEL-5 melanoma = test system: SK-MEL-5 melanoma
MOLT-4 leukemia = test system: MOLT-4 leukemia
COLO 205 colon = test system: COLO 205 colon
OVCAR-4 ovarian = test system: OVCAR-4 ovarian
HT29 colon = test system: HT29 colon
HCC-2998 colon = test system: HCC-2998 colon
HCT-15 colon = test system: HCT-15 colon
DU-145 prostate = test system: DU-145 prostate
IGROV1 ovarian = test system: IGROV1 ovarian
K-562 leukemia = test system: K-562 leukemia
RPMI-8226 leukemia = test system: RPMI-8226 leukemia
OVCAR-3 ovarian = test system: OVCAR-3 ovarian
UO-31 renal = test system: UO-31 renal
A549 NSCLC = test system: A549 NSCLC
NCI-H460 lung = test system: NCI-H460 lung
KM12 colon = test system: KM12 colon
SK-MEL-2 melanoma = test system: SK-MEL-2 melanoma
M14 melanoma = test system: M14 melanoma
UACC-62 melanoma = test system: UACC-62 melanoma
LOX IMVI melanoma = test system: LOX IMVI melanoma
SF-539 CNS = test system: SF-539 CNS
SF-295 CNS = test system: SF-295 CNS
NCI/ADR-RES ovarian = test system: NCI/ADR-RES ovarian
CCRF-CEM leukemia = test system: CCRF-CEM leukemia
HL-60(TB) leukemia = test system: HL-60(TB) leukemia
HCT-116 colon = test system: HCT-116 colon
PC-3 prostate = test system: PC-3 prostate
MDA-MB-231 breast = test system: MDA-MB-231 breast
HOP-92 NSCLC = test system: HOP-92 NSCLC
TK-10 renal = test system: TK-10 renal
SK-MEL-28 melanoma = test system: SK-MEL-28 melanoma
NCI-H522 lung = test system: NCI-H522 lung
ACHN renal = test system: ACHN renal
BT-549 breast = test system: BT-549 breast
T-47D breast = test system: T-47D breast
SN12C renal = test system: SN12C renal
MDA-N = test system: MDA-N
NCI-H23 lung = test system: NCI-H23 lung
SF-268 CNS = test system: SF-268 CNS
UACC-257 melanoma = test system: UACC-257 melanoma
A498 renal = test system: A498 renal
OVCAR-5 ovarian = test system: OVCAR-5 ovarian
SNB-75 CNS = test system: SNB-75 CNS
786-0 renal = test system: 786-0 renal

Compound `COc1ccc(C2=C(c3ccc(OC)c(OC)c3)C(=O)N3CCCC3C2)cc1` (stereo unspecified) has a GI50 (HS 578T breast) of 6.71 µM, a TGI (HS 578T breast) of over 78 µM and a GI50 (SNB-19 CNS) of 63.8 µM. For the same compound, the TGI (SNB-19 CNS) was over 100 µM, the GI50 (OVCAR-8 ovarian) was 21.7 µM and the TGI (OVCAR-8 ovarian) was over 100 µM. It also gave a GI50 (MCF7 breast) of 31.8 µM, a TGI (MCF7 breast) of over 100 µM and a GI50 (SR leukemia) of 3.02 µM. For the same compound, the TGI (SR leukemia) was 12.8 µM, the GI50 (HOP-62 NSCLC) was 14.7 µM and the TGI (HOP-62 NSCLC) was over 100 µM. The GI50 (CAKI-1 renal) was 39.4 µM, the TGI (CAKI-1 renal) was over 100 µM and the GI50 (SW-620 colon) was 32.5 µM. It also gave a TGI (SW-620 colon) of over 100 µM, a GI50 (MALME-3M melanoma) of over 71.4 µM and a TGI (MALME-3M melanoma) of over 100 µM. It also gave a GI50 (SK-OV-3 ovarian) of 30.5 µM, a TGI (SK-OV-3 ovarian) of over 100 µM and a GI50 (NCI-H226 lung) of 43.9 µM. It also gave a TGI (NCI-H226 lung) of over 100 µM, a GI50 (MDA-MB-435) of 25.7 µM and a TGI (MDA-MB-435) of over 100 µM. The GI50 (RXF 393 renal) was 11.5 µM, the TGI (RXF 393 renal) was over 38.2 µM and the GI50 (U251 CNS) was 7.47 µM. It also gave a TGI (U251 CNS) of over 100 µM, a GI50 (SK-MEL-5 melanoma) of 9.03 µM and a TGI (SK-MEL-5 melanoma) of over 72.6 µM. The GI50 (MOLT-4 leukemia) was 2720 nM, the TGI (MOLT-4 leukemia) was 19.6 µM and the GI50 (COLO 205 colon) was 8.41 µM. For the same compound, the TGI (COLO 205 colon) was over 100 µM, the GI50 (OVCAR-4 ovarian) was 20.6 µM and the TGI (OVCAR-4 ovarian) was over 100 µM. It also gave a GI50 (HT29 colon) of 13.6 µM, a TGI (HT29 colon) of over 100 µM and a GI50 (HCC-2998 colon) of 53.6 µM. The TGI (HCC-2998 colon) was over 100 µM, the GI50 (HCT-15 colon) was 5.18 µM and the TGI (HCT-15 colon) was over 100 µM. It also gave a GI50 (DU-145 prostate) of 30.8 µM, a TGI (DU-145 prostate) of over 86.8 µM and a GI50 (IGROV1 ovarian) of 13.3 µM. The TGI (IGROV1 ovarian) was over 100 µM, the GI50 (K-562 leukemia) was 7.32 µM and the TGI (K-562 leukemia) was over 100 µM. For the same compound, the GI50 (RPMI-8226 leukemia) was 8.47 µM, the TGI (RPMI-8226 leukemia) was 62.6 µM and the GI50 (OVCAR-3 ovarian) was 23.9 µM. It also gave a TGI (OVCAR-3 ovarian) of over 93.8 µM, a GI50 (UO-31 renal) of 22.8 µM and a TGI (UO-31 renal) of over 100 µM. For the same compound, the GI50 (A549 NSCLC) was 15.1 µM, the TGI (A549 NSCLC) was over 100 µM and the GI50 (NCI-H460 lung) was 4.46 µM. For the same compound, the TGI (NCI-H460 lung) was 23.3 µM, the GI50 (KM12 colon) was 15.7 µM and the TGI (KM12 colon) was over 100 µM. It also gave a GI50 (SK-MEL-2 melanoma) of over 71.1 µM, a TGI (SK-MEL-2 melanoma) of over 100 µM and a GI50 (M14 melanoma) of 35.9 µM. The TGI (M14 melanoma) was over 100 µM, the GI50 (UACC-62 melanoma) was 13.2 µM and the TGI (UACC-62 melanoma) was over 100 µM. It also gave a GI50 (LOX IMVI melanoma) of 10.4 µM, a TGI (LOX IMVI melanoma) of over 52.7 µM and a GI50 (SF-539 CNS) of 12 µM. It also gave a TGI (SF-539 CNS) of over 100 µM, a GI50 (SF-295 CNS) of 29.2 µM and a TGI (SF-295 CNS) of over 100 µM. The GI50 (NCI/ADR-RES ovarian) was 39.6 µM, the TGI (NCI/ADR-RES ovarian) was over 100 µM and the GI50 (CCRF-CEM leukemia) was 8.03 µM. The TGI (CCRF-CEM leukemia) was over 100 µM, the GI50 (HL-60(TB) leukemia) was 4.26 µM and the TGI (HL-60(TB) leukemia) was 22.7 µM. For the same compound, the GI50 (HCT-116 colon) was 9.64 µM, the TGI (HCT-116 colon) was over 100 µM and the GI50 (PC-3 prostate) was 9.73 µM. The TGI (PC-3 prostate) was over 100 µM, the GI50 (MDA-MB-231 breast) was 22 µM and the TGI (MDA-MB-231 breast) was over 100 µM. It also gave a GI50 (HOP-92 NSCLC) of 41.3 µM, a TGI (HOP-92 NSCLC) of over 100 µM and a GI50 (TK-10 renal) of 76.2 µM. For the same compound, the TGI (TK-10 renal) was over 100 µM, the GI50 (SK-MEL-28 melanoma) was 73.3 µM and the TGI (SK-MEL-28 melanoma) was over 100 µM. It also gave a GI50 (NCI-H522 lung) of 15.7 µM, a TGI (NCI-H522 lung) of over 100 µM and a GI50 (ACHN renal) of 34 µM. It also gave a TGI (ACHN renal) of over 100 µM, a GI50 (BT-549 breast) of over 71.2 µM and a TGI (BT-549 breast) of over 100 µM. It also gave a GI50 (T-47D breast) of 42.3 µM, a TGI (T-47D breast) of over 100 µM and a GI50 (SN12C renal) of 45.7 µM. It also gave a TGI (SN12C renal) of over 100 µM, a GI50 (MDA-N) of 44.6 µM and a TGI (MDA-N) of over 100 µM. For the same compound, the GI50 (NCI-H23 lung) was over 90.4 µM, the TGI (NCI-H23 lung) was over 100 µM and the GI50 (SF-268 CNS) was 9.44 µM. It also gave a TGI (SF-268 CNS) of over 100 µM, a GI50 (UACC-257 melanoma) of 62.3 µM and a TGI (UACC-257 melanoma) of over 100 µM. For the same compound, the GI50 (A498 renal) was 34.1 µM, the TGI (A498 renal) was over 100 µM and the GI50 (OVCAR-5 ovarian) was over 100 µM. The TGI (OVCAR-5 ovarian) was over 100 µM, the GI50 (SNB-75 CNS) was 16.6 µM and the TGI (SNB-75 CNS) was over 72.9 µM. For the same compound, the GI50 (786-0 renal) was 27.6 µM and the TGI (786-0 renal) was over 100 µM.
